Marks after values point to notes of the source that are not given here.
System: FCA-induced inflammation of the rat hind paw
Experiment: Freund's complete adjuvant (FCA) model of inflammatory pain, paw withdrawal threshold
Format: in vivo
Settings: for % Reversal [mean]: rat FCA
Method: Test Animals: Each experiment uses rats weighing between 200-260 g at the start of the experiment. The rats are group-housed and have free access to food and water at all times, except prior to oral administration of a Compound of Formula (I) when food is removed for 16 hours before dosing. A control group acts as a comparison to rats treated with a Compound of Formula (I). The control group is administered the vehicle for the Compound of Formula (I). The volume of vehicle administered to the control group is the same as the volume of carrier and Compound of Formula (I) administered to the test group.
Inflammatory Pain: To assess the actions of a Compound of Formula (I) for the treatment or prevention of inflammatory pain, the Freund's complete adjuvant (“FCA”) model of inflammatory pain was used. FCA-induced inflammation of the rat hind paw is associated with the development of persistent inflammatory mechanical hyperalgesia and provides reliable prediction of the anti-hyperalgesic action of clinically useful analgesic drugs (Bartho et al., “Involvement of capsaicin-sensitive neurons in hyperalgesia and enhanced opioid antinociception in inflammation,” Naunyn-Schmiedeberg's Archives of Pharmacol. 342:666-670 (1990)). The right hind paw of each male, 6-week old Jcl:SD rat was administered a 50 μL intraplantar injection of 50% FCA (Sigma-Aldrich). 24 hour post-injection, the animal was assessed for response to noxious mechanical stimuli by determining the PWT, as described below. Rats were then administered a single injection of 0.1, 0.3, 1, 3, or 10 mg/kg of either the product prepared with Compound A155(a) and fumaric acid as described in Example 10, 20 mg/kg of an ibuprofen control (EMD Millipore Chemicals, Inc.), or vehicle as a control (0.5% weight/volume methylcellulose (400cP, Wako Pure Chemical Industries, Ltd., Osaka, Japan)/aqueous solution). […] Responses to noxious mechanical stimuli were then determined 1, 3, 5, and 7 hours post-administration. Percentage reversal of hyperalgesia for each animal was defined as: […]
With the exception of the controls (i.e., ibuprofen, vehicle) where the student's t-test was used, Dunnett's test was conducted for the % reversal. In either instance, values with p<0.05 were considered to be statistically significant. The % reversal results for administration of the product prepared with Compound A155(a) and fumaric acid as described in Example 10 and the respective controls are presented in Table 7.
Response to Mechanical Stimuli as an Assessment of Mechanical Hyperalgesia: The paw pressure assay was used to assess mechanical hyperalgesia. For this assay, hind paw withdrawal thresholds (PWT) to a noxious mechanical stimulus were determined using an analgesymeter (Model 37215, commercially available from Ugo Basile of Italy) as described in Stein, “Unilateral Inflammation of the Hindpaw in Rats as a Model of Prolonged Noxious Stimulation: Alterations in Behavior and Nociceptive Thresholds,” Pharmacol. Biochem. and Behavior 31:451-455 (1988). The maximum weight that could be applied to the hind paw was set at 250 g and the end point was taken as complete withdrawal of the paw. PWT was determined once for each rat at each time point and either only the affected (ipsilateral) paw was tested, or both the ipsilateral and contralateral (non-injured) paw were tested.

## CC1CN(c2ncc(C(O)CO)cc2F)CCN1C(=O)Nc1nc2cc(F)ccc2s1.O=C(O)C=CC(=O)O (stereo not drawn)
Rat FCA model
  minimal effective dose: 0.1 mg/kg
0.1 mg/kg, 1 h after administration
  % Reversal [mean]: 31.9** %
0.1 mg/kg, 1 h after administration, listed as product prepared with Compound A155(a) and fumaric acid
  % Reversal [mean]: 31.9%
0.1 mg/kg, 3 h after administration
  % Reversal [mean]: 37.8** %
0.1 mg/kg, 3 h after administration, listed as product prepared with Compound A155(a) and fumaric acid
  % Reversal [mean]: 37.8%
0.1 mg/kg, 5 h after administration
  % Reversal [mean]: 31.3** %
0.1 mg/kg, 5 h after administration, listed as product prepared with Compound A155(a) and fumaric acid
  % Reversal [mean]: 31.3%
0.1 mg/kg, 7 h after administration
  % Reversal [mean]: 23.6** %
0.1 mg/kg, 7 h after administration, listed as product prepared with Compound A155(a) and fumaric acid
  % Reversal [mean]: 23.6%
0.3 mg/kg, 1 h after administration
  % Reversal [mean]: 65.0** %
0.3 mg/kg, 1 h after administration, listed as product prepared with Compound A155(a) and fumaric acid
  % Reversal [mean]: 65.0%
0.3 mg/kg, 3 h after administration
  % Reversal [mean]: 60.2** %
0.3 mg/kg, 3 h after administration, listed as product prepared with Compound A155(a) and fumaric acid
  % Reversal [mean]: 60.2%
0.3 mg/kg, 5 h after administration
  % Reversal [mean]: 54.1** %
0.3 mg/kg, 5 h after administration, listed as product prepared with Compound A155(a) and fumaric acid
  % Reversal [mean]: 54.1%
0.3 mg/kg, 7 h after administration
  % Reversal [mean]: 39.4** %
0.3 mg/kg, 7 h after administration, listed as product prepared with Compound A155(a) and fumaric acid
  % Reversal [mean]: 39.4%
1 mg/kg, 1 h after administration
  % Reversal [mean]: 79.4** %
1 mg/kg, 3 h after administration
  % Reversal [mean]: 84.1** %
1 mg/kg, 5 h after administration
  % Reversal [mean]: 78.2** %
1 mg/kg, 7 h after administration
  % Reversal [mean]: 70.5** %
3 mg/kg, 1 h after administration
  % Reversal [mean]: 80.3** %
3 mg/kg, 1 h after administration, listed as product prepared with Compound A155(a) and fumaric acid
  % Reversal [mean]: 80.3%
3 mg/kg, 3 h after administration
  % Reversal [mean]: 87.9** %
3 mg/kg, 3 h after administration, listed as product prepared with Compound A155(a) and fumaric acid
  % Reversal [mean]: 87.9%
3 mg/kg, 5 h after administration
  % Reversal [mean]: 86.6** %
3 mg/kg, 5 h after administration, listed as product prepared with Compound A155(a) and fumaric acid
  % Reversal [mean]: 86.6%
3 mg/kg, 7 h after administration
  % Reversal [mean]: 97.3** %
3 mg/kg, 7 h after administration, listed as product prepared with Compound A155(a) and fumaric acid
  % Reversal [mean]: 97.3%
10 mg/kg, 1 h after administration
  % Reversal [mean]: 102.5** %
10 mg/kg, 3 h after administration
  % Reversal [mean]: 94.1** %
10 mg/kg, 5 h after administration
  % Reversal [mean]: 97.3** %
10 mg/kg, 7 h after administration
  % Reversal [mean]: 93.1** %

— patent publication US9273043B2, “TRPV1 antagonists including dihydroxy substituent and uses thereof” (Purdue Pharma L.P., priority 2011, dated 2016)
